Assay results reported in patent US20040204863A1, “Crystal of a kinase-ligand complex and methods of use” (priority 1999, published 2004).

Columns and labels:
[1] = test system: TCR ζ-chain (p23) and 70 kD protein phosphorylation in Jurkat cells; assay type: cell-based; conditions: TCR-induced phosphotyrosine, western blot, FIG. 7C
Description: Phosphotyrosine western blotting. […] Cells were then transferred to 37° C. water bath for 1 minute. Stimulation was stopped by the addition of 5 volumes of cold PBS containing 200 μM sodium orthovanadate. Cells were spun down and lysed in 150 mM Tris/10 mM HEPES buffer, pH 7.3, containing 1% Triton X-100 and Complete protease inhibitor cocktail (Boehringer Mannheim, Germany) for 30 minutes on ice. […] Blots were probed with anti-phosphotyrosine (4G10, Upstate Biotechnology, Inc., Saranac Lake, N.Y.) and developed using ECL-plus following the manufacturers directions (Amersham, Arlington Heights, Ill.).

[2] = test system: IL-2 production in hPBL T-cells; assay: T-cell activation: TCR-induced IL-2 secretion (ELISA); assay type: cell-based; conditions: human T-cell cultures, anti-CD3/anti-CD28 stimulation, 20 hours, FIG. 7B; read-out: IC50 inhibition of IL-2 production
Description: T-cell activation. Whole blood was obtained from normal donors and human peripheral blood lymphocytes (hPBL) were isolated by ficol-hypaque density centrifugation. T-cells were then purified from the hPBL by negative selection using an R&D column following the manufacturers directions (R&D Systems, Minneapolis, Minn.). A 96-well flat-bottomed plate was coated with 10 μg/ml of goat anti-mouse (GAM)-IgG1 (Caltag, Burlingame, Calif.) in PBS overnight at 4C. The GAM-coated plate was flicked out and anti-CD3 mAb (UCHT-1, Coulter/Immunotech, Miami, Fla.) is added at 0.2 μg/ml in AIMV medium (Gibco, Grand Island, N.Y.) for 3 hr. at 37C. Purified T-cells were pre-incubated at 1×10^5/well in AIM V with or without compound for 30 minutes then transferred to the anti-CD3 capture plate. Finally, anti-CD28 (Pharmingen, San Diego, Calif.) in AIMV (150 ng/ml final) was added to each well. Cells were incubated for 20 hours at 37C in 5% CO2 then supernatants were tested by ELISA for cytokine levels (Endogen, Woburn, Mass.).

ZAP-70 = biological target: T1, ZAP-70 (Homo sapiens, UniProt P43403); conditions: reported in [51]; cited from earlier work
T1 sequence (P43403 1-619): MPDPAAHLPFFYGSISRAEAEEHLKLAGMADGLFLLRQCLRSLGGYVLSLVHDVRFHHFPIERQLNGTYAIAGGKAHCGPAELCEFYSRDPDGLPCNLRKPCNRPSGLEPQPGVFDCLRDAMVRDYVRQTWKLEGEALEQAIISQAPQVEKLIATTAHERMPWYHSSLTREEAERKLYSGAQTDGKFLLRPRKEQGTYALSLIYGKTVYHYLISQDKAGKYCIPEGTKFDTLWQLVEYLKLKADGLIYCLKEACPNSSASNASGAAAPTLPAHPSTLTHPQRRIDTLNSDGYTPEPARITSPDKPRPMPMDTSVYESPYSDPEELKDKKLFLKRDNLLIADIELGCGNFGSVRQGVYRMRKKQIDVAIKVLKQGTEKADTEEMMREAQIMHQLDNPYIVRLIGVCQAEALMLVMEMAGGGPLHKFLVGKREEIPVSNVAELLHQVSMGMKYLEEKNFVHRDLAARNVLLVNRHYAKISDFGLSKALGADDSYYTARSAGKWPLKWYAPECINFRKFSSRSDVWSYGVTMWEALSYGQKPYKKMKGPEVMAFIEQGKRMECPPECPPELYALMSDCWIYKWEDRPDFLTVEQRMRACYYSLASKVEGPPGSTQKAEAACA

Lck = Lck (Homo sapiens, UniProt P06239); conditions: reported in [51]; cited from earlier work
Sequence of Lck (P06239 whole entry, species assumed): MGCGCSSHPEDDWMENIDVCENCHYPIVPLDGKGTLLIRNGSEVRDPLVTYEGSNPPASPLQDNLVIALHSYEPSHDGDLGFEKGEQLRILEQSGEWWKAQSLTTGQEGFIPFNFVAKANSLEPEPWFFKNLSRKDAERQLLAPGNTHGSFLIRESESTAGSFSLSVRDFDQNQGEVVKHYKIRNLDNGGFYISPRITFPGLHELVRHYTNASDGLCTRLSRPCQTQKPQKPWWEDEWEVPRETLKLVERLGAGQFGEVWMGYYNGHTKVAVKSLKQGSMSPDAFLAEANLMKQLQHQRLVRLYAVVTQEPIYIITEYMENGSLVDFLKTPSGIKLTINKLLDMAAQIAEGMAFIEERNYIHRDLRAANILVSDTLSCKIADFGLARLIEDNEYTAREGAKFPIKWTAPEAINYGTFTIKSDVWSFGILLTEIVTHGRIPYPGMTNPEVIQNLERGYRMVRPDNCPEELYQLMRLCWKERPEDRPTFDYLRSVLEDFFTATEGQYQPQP

Row | Structure (SMILES) | inhibition of Lck-dependent phosphorylation of the TCR ζ-chain (p23) [1] | inhibition of phosphorylation of a 70 kD protein (likely ZAP-70) [1] | IC50 [2] [nM] | IC50 (ZAP-70) [nM] | inhibitory activity against Lck compared with PP2 (Lck)
1 | CC(C)(C)n1nc(-c2ccc(Cl)cc2)c2c(N)ncnc21 [PP2] | dose-dependent inhibition | inhibited the phosphorylation of a 70 kD protein | 600 | ≥ 100000 | –
2 | Cc1ccc(-c2nn(C(C)(C)C)c3ncnc(N)c23)cc1 [PP1] | – | – | – | – | approximately the same inhibitory activity against Lck
3 | CN[C@@H]1C[C@H]2O[C@@](C)([C@@H]1OC)n1c3ccccc3c3c4c(c5c6ccccc6n2c5c31)C(=O)NC4 [staurosporine] | – | – | 60 | – | –
